Reference: US10870647B2, “Imidazopyridine derivative, method for preparing same, and pharmaceutical composition containing same as active ingredient for preventing or treating cancer” (DAEGU-GYEONGBUK MEDICAL INNOVATION FOUNDATION, priority 2016, dated 2020)

Assays:
Assay in all cases: Kinase selectivity, scanMAX Kinase assay panel (DiscoverX), % control at 1 uM
Format in all cases: binding
[1] = target: T1, scanMAX Kinase assay panel (Homo sapiens, UniProt P54753); details: EPHB3; 1 uM; read-out: Percent Control (%)
T1 construct: purchased DiscoverX
T1 sequence (P54753 34-998): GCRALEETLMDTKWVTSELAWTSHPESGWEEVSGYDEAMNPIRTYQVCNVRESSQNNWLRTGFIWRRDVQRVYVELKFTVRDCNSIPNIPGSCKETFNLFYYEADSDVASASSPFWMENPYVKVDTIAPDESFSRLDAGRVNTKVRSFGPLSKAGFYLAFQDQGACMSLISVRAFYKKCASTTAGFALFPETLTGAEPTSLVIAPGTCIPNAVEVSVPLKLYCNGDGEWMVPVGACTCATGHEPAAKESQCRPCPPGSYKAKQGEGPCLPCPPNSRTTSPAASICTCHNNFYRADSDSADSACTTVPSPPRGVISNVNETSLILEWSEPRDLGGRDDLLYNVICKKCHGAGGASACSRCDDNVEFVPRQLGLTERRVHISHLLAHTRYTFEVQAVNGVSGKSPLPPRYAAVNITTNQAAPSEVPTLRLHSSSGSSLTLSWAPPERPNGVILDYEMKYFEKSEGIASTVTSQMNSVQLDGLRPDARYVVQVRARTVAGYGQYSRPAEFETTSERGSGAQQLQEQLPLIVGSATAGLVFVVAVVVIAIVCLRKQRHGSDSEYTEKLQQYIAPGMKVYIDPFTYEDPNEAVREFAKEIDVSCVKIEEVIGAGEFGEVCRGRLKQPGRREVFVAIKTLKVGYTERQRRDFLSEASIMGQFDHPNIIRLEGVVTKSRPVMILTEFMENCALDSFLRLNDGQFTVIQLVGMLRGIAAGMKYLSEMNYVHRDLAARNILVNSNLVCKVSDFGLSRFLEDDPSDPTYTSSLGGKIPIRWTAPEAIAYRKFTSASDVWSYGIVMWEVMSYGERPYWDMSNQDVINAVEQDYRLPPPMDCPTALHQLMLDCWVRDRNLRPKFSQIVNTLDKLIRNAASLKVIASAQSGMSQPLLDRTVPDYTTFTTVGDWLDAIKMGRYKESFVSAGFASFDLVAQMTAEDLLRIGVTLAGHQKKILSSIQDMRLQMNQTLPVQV
Summary of the method: (§1)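 Binding across the scanMAX kinase panel was tested at 1 uM compound. % control = (compound − positive control)/(negative control − positive control) × 100; below 35 counted as active.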

[2] = target: T2, scanMAX Kinase assay panel (Homo sapiens, UniProt O00750); details: PIK3C2B; 1 uM; read-out: Percent Control (%)
T2 construct: purchased DiscoverX
Summary of the method: as §1

[3] = target: T3, scanMAX Kinase assay panel (Homo sapiens, UniProt P49336); details: CDK8; 1 uM; read-out: Percent Control (%)
T3 construct: purchased DiscoverX
T3 sequence (P49336 whole entry): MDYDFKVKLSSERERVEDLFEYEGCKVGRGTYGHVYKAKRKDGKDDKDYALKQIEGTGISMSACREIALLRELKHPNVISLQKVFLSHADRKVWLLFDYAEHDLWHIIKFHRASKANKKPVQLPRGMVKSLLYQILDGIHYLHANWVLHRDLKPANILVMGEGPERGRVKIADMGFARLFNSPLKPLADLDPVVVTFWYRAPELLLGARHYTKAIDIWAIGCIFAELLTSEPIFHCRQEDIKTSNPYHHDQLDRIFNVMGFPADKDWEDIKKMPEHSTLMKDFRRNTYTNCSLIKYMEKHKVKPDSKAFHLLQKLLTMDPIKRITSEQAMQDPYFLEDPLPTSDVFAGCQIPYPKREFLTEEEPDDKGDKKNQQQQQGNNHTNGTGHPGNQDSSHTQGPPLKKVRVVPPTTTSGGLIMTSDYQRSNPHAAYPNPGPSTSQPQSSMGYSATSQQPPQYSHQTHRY
Summary of the method: as §1

[4] = target: T4, scanMAX Kinase assay panel (Homo sapiens, UniProt Q13177); details: PAK2; 1 uM; read-out: Percent Control (%)
T4 construct: purchased DiscoverX
T4 sequence (Q13177 whole entry): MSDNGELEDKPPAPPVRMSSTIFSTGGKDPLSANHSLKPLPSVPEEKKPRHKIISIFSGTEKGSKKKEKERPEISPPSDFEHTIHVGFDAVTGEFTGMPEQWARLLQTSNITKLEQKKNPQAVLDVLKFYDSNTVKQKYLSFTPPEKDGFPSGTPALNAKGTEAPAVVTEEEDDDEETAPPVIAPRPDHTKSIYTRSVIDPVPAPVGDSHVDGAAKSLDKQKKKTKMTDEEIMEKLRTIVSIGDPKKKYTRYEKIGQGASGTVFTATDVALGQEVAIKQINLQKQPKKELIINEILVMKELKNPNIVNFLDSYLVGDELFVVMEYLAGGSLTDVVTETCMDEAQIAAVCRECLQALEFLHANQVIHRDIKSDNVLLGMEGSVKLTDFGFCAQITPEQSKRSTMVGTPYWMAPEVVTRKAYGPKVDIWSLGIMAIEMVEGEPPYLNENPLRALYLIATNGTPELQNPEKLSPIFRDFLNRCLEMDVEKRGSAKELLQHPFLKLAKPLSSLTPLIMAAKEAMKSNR
Summary of the method: as §1

[5] = target: T5, scanMAX Kinase assay panel (Homo sapiens, UniProt P49759); details: CLK1; 1 uM; read-out: Percent Control (%)
T5 construct: purchased DiscoverX
T5 sequence (P49759 whole entry): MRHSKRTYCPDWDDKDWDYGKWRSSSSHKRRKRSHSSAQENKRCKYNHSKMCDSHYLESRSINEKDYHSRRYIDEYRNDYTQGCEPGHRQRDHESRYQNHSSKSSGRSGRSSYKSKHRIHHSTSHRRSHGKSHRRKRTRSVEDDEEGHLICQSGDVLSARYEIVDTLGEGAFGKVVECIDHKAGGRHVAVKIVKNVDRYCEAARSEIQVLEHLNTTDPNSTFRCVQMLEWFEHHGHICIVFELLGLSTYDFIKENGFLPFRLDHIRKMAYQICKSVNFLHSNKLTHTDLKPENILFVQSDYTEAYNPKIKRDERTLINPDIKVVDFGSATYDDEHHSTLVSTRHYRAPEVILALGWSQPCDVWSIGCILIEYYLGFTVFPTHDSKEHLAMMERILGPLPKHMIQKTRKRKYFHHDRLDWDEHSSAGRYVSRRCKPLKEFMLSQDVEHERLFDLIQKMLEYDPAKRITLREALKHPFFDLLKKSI
Summary of the method: as §1

[6] = target: T6, scanMAX Kinase assay panel (Homo sapiens, UniProt P15735); details: PHKG2; 1 uM; read-out: Percent Control (%)
T6 construct: purchased DiscoverX
T6 sequence (P15735 1-406): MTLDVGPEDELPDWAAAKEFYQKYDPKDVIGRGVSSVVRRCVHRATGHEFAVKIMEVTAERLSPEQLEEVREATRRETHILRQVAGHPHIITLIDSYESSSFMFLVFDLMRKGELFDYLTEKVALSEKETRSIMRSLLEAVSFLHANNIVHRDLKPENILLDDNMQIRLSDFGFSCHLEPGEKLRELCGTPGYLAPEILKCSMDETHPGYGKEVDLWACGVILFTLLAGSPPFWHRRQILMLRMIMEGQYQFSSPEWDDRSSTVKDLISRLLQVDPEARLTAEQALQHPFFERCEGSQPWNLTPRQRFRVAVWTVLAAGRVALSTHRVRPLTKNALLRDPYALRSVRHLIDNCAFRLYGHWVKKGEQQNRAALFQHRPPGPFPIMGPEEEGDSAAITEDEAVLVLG
Summary of the method: as §1

[7] = target: T7, scanMAX Kinase assay panel (Homo sapiens, UniProt P09619); details: PDGFRB; 1 uM; read-out: Percent Control (%)
T7 construct: purchased DiscoverX
T7 sequence (P09619 33-1106): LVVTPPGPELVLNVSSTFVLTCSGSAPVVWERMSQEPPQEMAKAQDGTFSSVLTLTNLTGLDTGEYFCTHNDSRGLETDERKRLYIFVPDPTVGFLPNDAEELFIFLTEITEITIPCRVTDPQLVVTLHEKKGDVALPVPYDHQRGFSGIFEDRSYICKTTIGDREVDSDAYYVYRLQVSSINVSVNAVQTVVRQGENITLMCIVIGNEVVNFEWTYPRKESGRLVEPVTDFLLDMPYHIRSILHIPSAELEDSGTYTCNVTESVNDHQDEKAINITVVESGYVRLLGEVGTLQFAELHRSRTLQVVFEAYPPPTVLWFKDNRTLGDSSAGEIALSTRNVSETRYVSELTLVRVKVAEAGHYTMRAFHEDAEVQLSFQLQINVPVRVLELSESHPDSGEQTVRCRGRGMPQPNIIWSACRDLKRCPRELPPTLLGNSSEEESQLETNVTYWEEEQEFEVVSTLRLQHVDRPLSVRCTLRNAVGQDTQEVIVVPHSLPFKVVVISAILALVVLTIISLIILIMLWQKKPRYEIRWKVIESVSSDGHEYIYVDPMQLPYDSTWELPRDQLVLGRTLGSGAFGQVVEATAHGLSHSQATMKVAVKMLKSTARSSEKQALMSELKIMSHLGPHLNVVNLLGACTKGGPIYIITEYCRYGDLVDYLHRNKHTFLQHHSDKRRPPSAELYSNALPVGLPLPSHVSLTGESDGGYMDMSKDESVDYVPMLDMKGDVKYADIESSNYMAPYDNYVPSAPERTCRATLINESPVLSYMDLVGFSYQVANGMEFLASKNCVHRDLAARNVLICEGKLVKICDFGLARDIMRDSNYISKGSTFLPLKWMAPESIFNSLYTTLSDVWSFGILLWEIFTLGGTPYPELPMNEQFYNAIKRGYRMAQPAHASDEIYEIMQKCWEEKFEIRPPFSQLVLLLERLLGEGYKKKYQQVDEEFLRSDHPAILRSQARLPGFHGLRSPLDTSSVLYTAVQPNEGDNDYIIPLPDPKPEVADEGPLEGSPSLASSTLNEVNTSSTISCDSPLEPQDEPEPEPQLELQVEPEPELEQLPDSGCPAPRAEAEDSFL
Summary of the method: as §1

[8] = target: T8, scanMAX Kinase assay panel (Homo sapiens, UniProt Q96J92); details: WNK4; 1 uM; read-out: Percent Control (%)
T8 construct: purchased DiscoverX
T8 sequence (Q96J92 whole entry): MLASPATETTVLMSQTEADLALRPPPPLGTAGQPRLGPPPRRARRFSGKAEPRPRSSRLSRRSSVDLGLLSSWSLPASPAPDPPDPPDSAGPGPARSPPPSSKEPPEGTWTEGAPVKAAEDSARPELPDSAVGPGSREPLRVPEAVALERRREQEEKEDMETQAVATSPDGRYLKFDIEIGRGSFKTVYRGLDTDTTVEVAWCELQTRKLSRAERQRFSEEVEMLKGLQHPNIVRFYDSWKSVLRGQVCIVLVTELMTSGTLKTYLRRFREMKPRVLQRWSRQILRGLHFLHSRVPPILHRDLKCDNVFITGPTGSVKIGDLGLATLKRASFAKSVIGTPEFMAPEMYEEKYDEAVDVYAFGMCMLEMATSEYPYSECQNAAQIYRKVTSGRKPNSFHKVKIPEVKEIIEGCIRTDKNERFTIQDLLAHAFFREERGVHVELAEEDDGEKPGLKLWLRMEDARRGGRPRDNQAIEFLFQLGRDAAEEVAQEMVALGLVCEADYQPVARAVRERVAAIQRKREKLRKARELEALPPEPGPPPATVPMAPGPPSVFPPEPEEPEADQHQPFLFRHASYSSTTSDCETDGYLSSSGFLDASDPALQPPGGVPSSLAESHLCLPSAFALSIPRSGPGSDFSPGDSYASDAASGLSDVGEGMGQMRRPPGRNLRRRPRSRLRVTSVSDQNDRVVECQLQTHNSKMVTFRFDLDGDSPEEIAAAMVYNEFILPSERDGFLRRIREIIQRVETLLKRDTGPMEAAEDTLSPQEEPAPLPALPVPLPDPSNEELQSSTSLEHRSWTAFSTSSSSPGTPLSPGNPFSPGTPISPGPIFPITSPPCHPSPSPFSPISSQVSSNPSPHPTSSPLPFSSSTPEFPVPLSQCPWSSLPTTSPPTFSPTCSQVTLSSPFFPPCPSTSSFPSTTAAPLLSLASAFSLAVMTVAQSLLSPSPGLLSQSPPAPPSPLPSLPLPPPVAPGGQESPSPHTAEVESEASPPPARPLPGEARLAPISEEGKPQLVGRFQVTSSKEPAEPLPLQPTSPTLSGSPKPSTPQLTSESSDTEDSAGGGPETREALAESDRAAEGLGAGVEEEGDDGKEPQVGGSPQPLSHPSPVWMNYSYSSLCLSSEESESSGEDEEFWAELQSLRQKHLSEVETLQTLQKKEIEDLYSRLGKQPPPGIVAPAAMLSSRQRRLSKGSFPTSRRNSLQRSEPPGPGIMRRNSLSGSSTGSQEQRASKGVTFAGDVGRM
Summary of the method: as §1

[9] = target: T9, scanMAX Kinase assay panel (Homo sapiens, UniProt P53667); details: LIMK1; 1 uM; read-out: Percent Control (%)
T9 construct: purchased DiscoverX
T9 sequence (P53667 whole entry): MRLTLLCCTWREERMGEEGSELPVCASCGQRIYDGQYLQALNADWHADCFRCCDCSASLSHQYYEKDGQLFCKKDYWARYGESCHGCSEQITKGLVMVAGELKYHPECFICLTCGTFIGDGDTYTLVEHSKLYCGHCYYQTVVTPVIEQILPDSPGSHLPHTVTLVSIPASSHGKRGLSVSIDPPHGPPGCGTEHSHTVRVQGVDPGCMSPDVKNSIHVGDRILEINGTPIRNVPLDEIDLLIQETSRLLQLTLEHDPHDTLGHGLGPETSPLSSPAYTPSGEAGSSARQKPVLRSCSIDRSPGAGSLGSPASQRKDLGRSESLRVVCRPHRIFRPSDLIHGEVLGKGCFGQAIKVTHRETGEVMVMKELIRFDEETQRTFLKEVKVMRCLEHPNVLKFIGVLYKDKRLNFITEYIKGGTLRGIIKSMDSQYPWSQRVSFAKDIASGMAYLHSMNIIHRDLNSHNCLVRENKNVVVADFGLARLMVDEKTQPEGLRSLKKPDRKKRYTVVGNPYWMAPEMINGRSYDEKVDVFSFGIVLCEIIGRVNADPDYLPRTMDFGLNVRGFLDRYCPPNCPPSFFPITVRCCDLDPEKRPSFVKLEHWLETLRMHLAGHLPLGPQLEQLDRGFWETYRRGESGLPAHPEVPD
Summary of the method: as §1

Row | Compound | remaining binding at 1 µM [1] [%] | remaining binding at 1 µM [2] [%] | remaining binding at 1 µM [3] [%] | remaining binding at 1 µM [4] [%] | remaining binding at 1 µM [5] [%] | remaining binding at 1 µM [6] [%] | remaining binding at 1 µM [7] [%] | remaining binding at 1 µM [8] [%] | remaining binding at 1 µM [9] [%]
1 | Cc1ccc(C(=O)Nc2ccc(CN3CCN(C)CC3)c(C(F)(F)F)c2)cc1C#Cc1cnc2c(Nc3cnn(C)c3)cccn12 [Example 1, 4-methyl-3-((8-((1-methyl-1H-pyrazol-4-yl)amino)imidazo[1,2-a]pyridin-3-yl)ethynyl)-N-(4-((4-methylpiperazin-1-yl)methyl)-3-(trifluoromethyl)phenyl)benzamide] | 47 | 100 | 4 | 64 | 25 | 72 | 0 | 96 | 4
2 | Cc1cn(-c2cc(NC(=O)c3ccc(C)c(C#Cc4cnc5c(Nc6cnn(C)c6)cccn45)c3)cc(C(F)(F)F)c2)cn1 [Example 12, 4-methyl-N-(3-(4-methyl-1H-imidazol-1-yl)-5-(trifluoromethyl)phenyl)-3-((8-((1-methyl-1H-pyrazol-4-yl)amino)imidazo[1,2-a]pyridin-3-yl)ethynyl)benzamide] | 100 | 91 | 31 | 54 | 82 | 89 | 1 | 100 | 38
3 | Cc1ccc(NC(=O)C2(C(=O)Nc3ccc(F)cc3)CC2)cc1C#Cc1cnc2c(Nc3cnn(C(C)C)c3)cccn12 [Example 78] | 100 | 100 | 100 | 100 | 79 | 100 | 0 | 100 | 100
